The source of these data is patent US20040138199A1, “Benzoxazines and derivatives thereof as therapeutic agents” (priority 2002, published 2004).

T1 sequence (P48736 whole entry, species assumed): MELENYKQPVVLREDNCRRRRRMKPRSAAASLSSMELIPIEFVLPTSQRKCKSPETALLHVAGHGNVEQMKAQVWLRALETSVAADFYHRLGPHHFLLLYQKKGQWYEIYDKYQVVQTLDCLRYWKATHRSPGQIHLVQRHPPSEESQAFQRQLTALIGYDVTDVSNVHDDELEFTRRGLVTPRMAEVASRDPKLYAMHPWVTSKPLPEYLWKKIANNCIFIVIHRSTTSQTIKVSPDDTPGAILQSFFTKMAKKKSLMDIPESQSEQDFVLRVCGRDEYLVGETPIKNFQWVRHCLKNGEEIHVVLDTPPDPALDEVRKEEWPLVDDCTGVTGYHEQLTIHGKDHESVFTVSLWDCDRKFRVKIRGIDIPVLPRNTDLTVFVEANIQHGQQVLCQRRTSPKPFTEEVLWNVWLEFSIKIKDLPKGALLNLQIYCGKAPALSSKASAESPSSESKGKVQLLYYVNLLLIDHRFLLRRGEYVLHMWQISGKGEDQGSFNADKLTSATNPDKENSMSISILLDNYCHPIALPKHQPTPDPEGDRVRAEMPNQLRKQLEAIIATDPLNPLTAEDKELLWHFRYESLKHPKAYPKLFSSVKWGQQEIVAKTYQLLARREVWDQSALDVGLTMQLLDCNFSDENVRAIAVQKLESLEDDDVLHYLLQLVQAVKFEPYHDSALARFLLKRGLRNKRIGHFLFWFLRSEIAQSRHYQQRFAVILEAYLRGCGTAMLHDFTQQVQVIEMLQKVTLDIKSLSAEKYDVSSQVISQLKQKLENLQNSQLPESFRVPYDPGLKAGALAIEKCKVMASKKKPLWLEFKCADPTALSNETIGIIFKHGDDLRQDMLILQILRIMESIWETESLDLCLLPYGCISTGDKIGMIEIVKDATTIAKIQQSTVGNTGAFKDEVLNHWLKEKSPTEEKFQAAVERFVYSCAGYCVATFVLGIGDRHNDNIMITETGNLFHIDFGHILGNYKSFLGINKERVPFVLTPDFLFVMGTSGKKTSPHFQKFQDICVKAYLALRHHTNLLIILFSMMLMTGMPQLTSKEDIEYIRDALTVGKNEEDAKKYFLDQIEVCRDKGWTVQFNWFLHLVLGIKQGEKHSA
T1 sequence (Q8WYR1 whole entry partner, species assumed): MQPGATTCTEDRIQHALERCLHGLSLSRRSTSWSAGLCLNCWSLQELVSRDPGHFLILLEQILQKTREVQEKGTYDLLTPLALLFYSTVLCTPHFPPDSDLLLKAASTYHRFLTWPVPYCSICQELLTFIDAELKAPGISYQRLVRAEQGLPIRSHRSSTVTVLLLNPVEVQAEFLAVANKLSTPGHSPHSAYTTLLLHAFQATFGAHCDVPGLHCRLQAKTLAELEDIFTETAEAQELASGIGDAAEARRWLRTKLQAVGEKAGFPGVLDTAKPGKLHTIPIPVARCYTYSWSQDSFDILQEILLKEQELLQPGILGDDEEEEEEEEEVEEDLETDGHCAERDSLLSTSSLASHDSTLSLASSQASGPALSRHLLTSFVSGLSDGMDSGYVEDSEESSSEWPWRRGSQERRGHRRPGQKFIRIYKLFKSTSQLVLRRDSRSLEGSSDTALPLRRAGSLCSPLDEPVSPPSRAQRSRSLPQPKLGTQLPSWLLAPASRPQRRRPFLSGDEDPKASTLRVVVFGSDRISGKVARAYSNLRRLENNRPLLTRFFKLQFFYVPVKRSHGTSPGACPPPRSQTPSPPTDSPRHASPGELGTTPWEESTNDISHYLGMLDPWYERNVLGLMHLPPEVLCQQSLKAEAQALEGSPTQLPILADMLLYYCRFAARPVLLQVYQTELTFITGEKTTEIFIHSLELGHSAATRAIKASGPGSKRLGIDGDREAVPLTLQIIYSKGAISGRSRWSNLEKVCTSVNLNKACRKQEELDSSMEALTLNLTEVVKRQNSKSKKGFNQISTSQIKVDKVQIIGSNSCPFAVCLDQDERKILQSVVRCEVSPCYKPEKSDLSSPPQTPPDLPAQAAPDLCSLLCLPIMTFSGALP

The assay addresses T1, p101/p110γ protein (PI3Kγ) (Homo sapiens, UniProt P48736).
T1 construct: HA; made in house; host or cells: Spodoptera frugiperda (Sf9) cells, baculovirus coinfection
As to the kind of experiment: PI3Kγ In Vitro Kinase Assay. Conditions: purified recombinant p101/p110γ with G protein β1/γ2 subunits; 20 μM ATP, 25 μM PIP2; 20 minutes at room temperature; radioactive PIP3 readout. It counts as biochemical. The protocol: Spodtera frugiperda cells, grown in ESF921 media, were coinfected with baculovirus expressing a glu-tagged […] and baculovirus expressing an HA-tagged p110γ, at a 3:1 ratio of p110 baculovirus to p110γ baculovirus. Sf9 cells were grown to 1×10^7 total cells/mL in 10L bioreactors and harvested 48-72 hours post infection. Samples of infected cells were then tested for expression of p101/p110γ PI3 kinase by immunoprecipitation and Western Blot analysis methods (see below).
To purify PI3Kγ, 4 volumes of room temperature hypotonic lysis buffer (1 mM MgCl2, 1 mM DTT, 5 mM EGTA, 1 mM Pefabloc, 0.5 μM aprotinin, […], 2 μM pepstatin, 5 μM E64, pH 8) per gram of cell paste, was poured onto frozen cell pellets with stirring, then lysed in a nitrogen “bomb” at 400 psi (599HC T316, Parr Instrument Co, Moline, Ill.). NaCl was added to 150 mM, and sodium cholate was added to 1% and mixed for another 45 minutes. The lysates were clarified by centrifugation for 25 minutes at 14,000 rpm. The lysates were then loaded over anti-glu-linked Protein-G Sepaharose beads (Covance Research Products, Richmond, Calif.) using 20 mL resin/50 g cell paste. The column was washed with 15 volumes of wash buffer (1 mM DTT, 0.2 mM EGTA, 1 mM Pefabloc, 0.5 μM aprotinin, 5 μM leupeptin, 2 μM pepstatin, 5 μM E64, 150 mM NaCl, 1% sodium cholate, pH 8). PI3Kγ was eluted with 6 column volumes of wash buffer that contain 100 μg/mL of a peptide that competes for binding of the glu tag. The column fractions with the eluted protein (determined by taking OD280 readings) were collected and dialyzed in 0.2 mM EGTA, 1 mM DTT, 1 mM Pefabloc, 5 μM leupeptin, 0.5% sodium cholate, 150 mM NaCl, and 50% glycerol, pH 8. The fractions were stored at −80° C. until further use.
Spodtera frugiperda cells were coinfected with baculovirus expressing a glu-tagged G protein β1 and baculovirus expressing a […] at a 1:1 ratio of glu-tagged G protein β1 baculovirus to G protein β2 baculovirus. Sf9 cells are grown in 10 L bioreactors and harvested 48-72 hours post infection. Samples of infected cells were tested for G protein β1/β2 expression by Western Blot analysis, as described below. Cell lysates were homogenized and loaded onto a column of glu-tagged beads as in Biological Example 1 and competed off the column with a glu peptide as described in Biological Example 1.
The inhibitory properties of the compounds in Table 1 were assayed in an in vitro PI3K assay. In a 96-well polypropylene plate, each well was spotted with 2 μL of 50 times the desired final concentration of compound in DMSO. Purified recombinant p101/p110γ protein (0.03 μg; ˜2.7 nM) and G protein β1/γ2 subunits (0.09 μg; −57.7 nM) for each reaction was combined in the assay buffer (30 mM HEPES, 100 mM NaCl, 1 mM EGTA, and 1 mM DTT). ATP and [γ-^32P-ATP] (0.09 μCi) were added to this mixture so that the final ATP concentration in the reaction was 20 μM. Lipid micelles were formed by sonicating phosphatidylinositol-4,5-diphosphate (PIP2), phosphatidylethanolamine (PE), and Na-cholate in the assay buffer for 10 minutes, adding MgCL2 and incubating on ice for 20 minutes, for final concentrations of 25 μM PIP2, 300 μM PE, 0.02% Na-cholate, and 10 mM MgCl2 in the reaction. The reactions were started by adding equal volumes lipid and enzyme mixture in a total volume of 50 μL, allowed to run for 20 minutes at room temperature, and stopped with 100 μL 75 mM H3PO4. The lipid product was transferred to a glass fiber filter plate and washed with 75 mM H3PO4 several times. The presence of radioactive lipid product (PIP3) was measured by adding Wallac Optiphase mix to each well and counting in a Wallac 1450 Trilux plate reader (PerkinElmer Life Sciences Inc., Boston, Mass. 02118). The IC50 for each compound tested is reported in μM in Table 1: […]
The term IC50 denotes the concentration that gives 50% inhibition. As for `O=C1NC(=S)SC1=Cc1ccc2c(c1)N(C(=O)Nc1ccc(Oc3ccccc3)cc1)CCO2` [Example 66, 6-(4-Oxo-2-thioxo-thiazolidin-5-ylidenemethyl)-2,3-dihydro-1,4-benzoxazine-4-carboxylic acid (4-phenoxy-phenyl)-amide], the half-maximal inhibitory concentration (IC50) stood at 80 nM. As for `O=C1NC(=S)SC1=Cc1ccc2c(c1)N(C(=O)c1ccc3ccccc3c1)CCO2` [Example 29, 5-[4-(Naphthalene-2-carbonyl)-3,4-dihydro-2H-1,4-benzoxazin-6-ylmethylene]-2-thioxo-thiazolidin-4-one], the figure is 570 nM; as for “5-[4-(7,7-Dimethyl-2-oxo-bicyclo[2.2.1]hept-1-ylmethanesulfonyl)-3,4-dihydro-2H-1,4-benzoxazin-6-ylmethylene]-2-thioxo-thiazolidin-4-one [Example 60]”, 330 nM. As for `O=C1NC(=S)SC1=Cc1ccc2c(c1)N(C(=O)c1ccc3c(c1)OCO3)CCO2` [Example 71, 5-[4-(1,3-Benzodioxole-5-carbonyl)-3,4-dihydro-2H-1,4-benzoxazin-6-ylmethylene]-2-thioxo-thiazolidin-4-one], the figure is 935 nM; as for `O=C1NC(=S)SC1=Cc1ccc2c(c1)N(C(=O)c1ccccn1)CCO2` [Example 54, 5-[4-(Pyridine-2-carbonyl)-3,4-dihydro-2H-1,4-benzoxazin-6-ylmethylene]-2-thioxo-thiazolidin-4-one], 445 nM; as for `COc1cccc(C(=O)N2CCOc3ccc(C=C4SC(=S)NC4=O)cc32)c1` [Example 21, 5-[4-(3-Methoxy-benzoyl)-3,4-dihydro-2H-1,4-benzoxazin-6-ylmethylene]-2-thioxo-thiazolidin-4-one], 100 nM.

With `O=C1NC(=S)SC1=Cc1ccc2c(c1)N(C(=O)COc1ccc(Cl)cc1)CCCO2` [Example 109, 5-{9-[2-(4-Chloro-phenoxy)-acetyl]-6,7,8,9-tetrahydro-5-oxa-9-aza-benzocyclohepten-2-ylmethylene}-2-thioxo-thiazolidin-4-one], the IC50 was found to be 2030 nM. With `O=C1NC(=S)SC1=Cc1ccc2c(c1)N(C(=O)Nc1ccc(Cl)cc1)CCO2` [Example 77, 6-(4-Oxo-2-thioxo-thiazolidin-5-ylidenemethyl)-2,3-dihydro-benzo[1,4]oxazine-4-carboxylic acid (4-chloro-phenyl)-amide] the figure was 2 nM; with `CC(C)(C)c1ccc(C(=O)N2CCOc3ccc(C=C4SC(=S)NC4=O)cc32)cc1` [Example 25, 5-[4-(4-tert-Butyl-benzoyl)-3,4-dihydro-2H-1,4-benzoxazin-6-ylmethylene]-2-thioxo-thiazolidin-4-one], 245 nM. As for `Cc1cc(C)cc(CN2c3cc(C=C4SC(=S)NC4=O)ccc3OCC2C)c1` (centres unmarked) [Example 9, 5-[4-(3,5-Dimethyl-benzyl)-3-methyl-3,4-dihydro-2H-benzo[1,4]oxazine-6-ylmethylene]-2-thioxo-thiazolidin-4-one], the figure is 2590 nM; as for `O=C1NC(=S)SC1=Cc1ccc2c(c1)N(C(=O)Nc1ccc(Oc3ccccc3)cc1)CCCO2` [Example 118, 2-(4-Oxo-2-thioxo-thiazolidin-5-ylidenemethyl)-7,8-dihydro-6H-5-oxa-9-aza-benzocycloheptene-9-carboxylic acid (4-phenoxy-phenyl)-amide], 1870 nM; as for “2-(4-Oxo-2-thioxo-thiazolidin-5-ylidenemethyl)-7,8-dihydro-6H-5-oxa-9-aza-benzocycloheptene-9-carboxylic acid p-tolyl ester [Example 107]”, 704 nM.

Consider `COc1ccc(C)cc1C(=O)N1CCOc2ccc(C=C3SC(=S)NC3=O)cc21` [Example 88, 5-[4-(2-Methoxy-5-methyl-benzoyl)-3,4-dihydro-2H-benzo[1,4]oxazin-6-ethylene]-2-thioxo-thiazolidin-4-one], for which the IC50 amounted to 465 nM. Consider `CC(C)(C)c1cc(C(=O)N2CCOc3ccc(C=C4SC(=S)NC4=O)cc32)cc(C(C)(C)C)c1` [Example 81, 5-[4-(3,5-Di-tert-butyl-benzoyl)-3,4-dihydro-2H-benzo[1,4]oxazin-6-ethylene]-2-thioxo-thiazolidin-4-one], for which the IC50 is 3760 nM. On to `CCCCC(CC)C(=O)N1CCOc2ccc(C=C3SC(=S)NC3=O)cc21` (centres unmarked) [Example 99, 5-[4-(2-Ethyl-hexanoyl)-3,4-dihydro-2H-1,4-benzoxazin-6-ylmethylene]-2-thioxo-thiazolidin-4-one], for which the half-maximal inhibitory concentration (IC50) worked out at 275 nM. As for `O=C1NC(=S)SC1=Cc1ccc2c(c1)N(C(=O)c1ccc3nonc3c1)CCCO2` [Example 116, 5-[9-(Benzofurazan-5-carbonyl)-6,7,8,9-tetrahydro-5-oxa-9-aza-benzocyclohepten-2-ylmethylene]-2-thioxo-thiazolidin-4-one], the figure is 1530 nM; as for `O=C1NC(=S)SC1=Cc1ccc2c(c1)N(C(=O)C1CC1)CCO2` [Example 32, 5-(4-Cyclopropanecarbonyl-3,4-dihydro-2H-1,4-benzoxazin-6-ylmethylene)-2-thioxo-thiazolidin-4-one], 4000 nM.

Turning to `O=C1NC(=S)SC1=Cc1ccc2c(c1)N(C(=O)c1ccccc1)CCO2` [Example 1, 5-[4-(1-Phenyl-methanoyl)-3,4-dihydro-2H-benzo[1,4]oxazine-6-ylmethylene]-2-thioxo-thiazolidin-4-one], the IC50 came out at 56 nM. With `CC(C)C(=O)N1CCOc2ccc(C=C3SC(=S)NC3=O)cc21` [Example 31, 5-(4-Isobutyryl-3,4-dihydro-2H-1,4-benzoxazin-6-ylmethylene)-2-thioxo-thiazolidin-4-one] the figure was 9 nM. Regarding `CN1CCN(Cc2ccc(C(=O)N3CCOc4ccc(C=C5SC(=S)NC5=O)cc43)cc2)CC1` [Example 74], the IC50 was 115 nM. For `CS(=O)(=O)c1ccc(C(=O)N2CCOc3ccc(C=C4SC(=S)NC4=O)cc32)cc1` [Example 72], the IC50 came to 174 nM.

As for `O=C1NC(=S)SC1=Cc1ccc2c(c1)N(C(=O)Nc1ccccc1OC(F)(F)F)CCO2` [Example 56, 6-(4-Oxo-2-thioxo-thiazolidin-5-ylidenemethyl)-2,3-dihydro-1,4-benzoxazine-4-carboxylic acid (2-trifluoromethoxy-phenyl)-amide], the IC50 came out at 225 nM. As for `CCC(C(=O)N1CCOc2ccc(C=C3SC(=S)NC3=O)cc21)c1ccccc1` (centres unmarked) [Example 30, 5-[4-(2-Phenyl-butyryl)-3,4-dihydro-2H-1,4-benzoxazin-6-ylmethylene]-2-thioxo-thiazolidin-4-one], the figure is 735 nM; as for “4-(3,5-dimethyl-benzyl)-3,4-dihydro-2H-benzo[1,4]oxazine-6-ylmethylene]-2-thioxo-thiazolidin-4-one [Example 4]”, 650 nM. With `O=C1NC(=S)SC1=Cc1ccc2c(c1)N(C(=O)C1CCCCCC1)CCO2` [Example 83, 5-[4-Cycloheptanecarbonyl-3,4-dihydro-2H-benzo[1,4]oxazin-6-ethylene]-2-thioxo-thiazolidin-4-one] the figure was 27 nM; with `O=C1NC(=S)SC1=Cc1ccc2c(c1)N(C(=O)c1cc(C(F)(F)F)cc(C(F)(F)F)c1)CCO2` [Example 45, 5-[4-(3,5-Bis-trifluoromethyl-benzoyl)-3,4-dihydro-2H-1,4-benzoxazin-6-ylmethylene]-2-thioxo-thiazolidin-4-one], 760 nM.
